The source of these data is article PMC9579956 (RSC Medicinal Chemistry, 2022).

The target in this test is Mycobacterium thermoresistible (Mtr) LpqY (Mycolicibacterium thermoresistibile, UniProt G7CES0). It is filed as binding. The note with it: single dose MST screen against LpqY.
Mycobacterium thermoresistible (Mtr) LpqY, sequence (G7CES0 29-471): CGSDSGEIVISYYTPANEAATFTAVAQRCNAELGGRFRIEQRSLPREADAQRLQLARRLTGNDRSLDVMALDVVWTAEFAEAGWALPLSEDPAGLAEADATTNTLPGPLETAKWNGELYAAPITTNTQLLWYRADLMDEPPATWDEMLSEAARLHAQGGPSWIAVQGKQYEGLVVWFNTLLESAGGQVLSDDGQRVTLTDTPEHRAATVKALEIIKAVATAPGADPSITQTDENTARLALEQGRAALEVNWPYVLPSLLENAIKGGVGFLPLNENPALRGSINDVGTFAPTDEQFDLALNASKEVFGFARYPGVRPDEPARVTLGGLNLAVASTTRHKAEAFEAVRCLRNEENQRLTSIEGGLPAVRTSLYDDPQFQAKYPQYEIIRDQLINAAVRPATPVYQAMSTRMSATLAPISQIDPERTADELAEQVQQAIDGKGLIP

For the compound `O=C(Nc1ccc(C(F)(F)F)c(C(F)(F)F)c1)c1cc(Cl)ccc1O` [MMV687807], the “Pathogen Box screen signal/noise ratio” value is 0.5. For `CCN(CC)CCCN1CCN(C(=O)c2cccc(-c3noc(C(F)(F)F)n3)c2)CC1` [MMV022236] the value was 0.542. For `Nc1ncnc2c1ncn2[C@@H]1O[C@H](COS(=O)(=O)NC(=O)c2ccccc2O)[C@@H](O)[C@H]1O` [MMV687700], the “Pathogen Box screen signal/noise ratio” value worked out at 1.1. In the case of `COc1ccc2nccc(NC(=O)C3CCN(CCc4ccc(Cl)cc4)CC3)c2n1` [MMV688844] it was 0.7; in that of `CCN(CC)S(=O)(=O)c1ccc(Cl)c(C(=O)Nc2ccc3nc(C)sc3c2)c1` [MMV019721], 1.3.

Take `Cc1ccc2nc(C)c(-c3ccn(Cc4ccccc4)n3)n2c1` [MMV688939]: the “Pathogen Box screen signal/noise ratio” value was -0.2. In the case of `COc1ccc(-c2onc(C(F)(F)F)c2-c2ccc(Cl)cc2)c(O)c1` [MMV688766] it was 0.9; in that of `Clc1ccc(CN2CCN(C3=NCCN3)CC2)cc1Cl` [MMV689060], 0.464; in that of `O=C(Nc1ccc(F)c(-c2nc3cc(-c4ccccc4)cnc3[nH]2)c1)N1CCCC1` [MMV688372], 0.9.

Consider `Cc1cccc(-c2nc(Nc3ccncn3)c3sccc3n2)n1` [MMV688122], for which the “Pathogen Box screen signal/noise ratio” value is listed as 1.3.

For `Nc1ccc2ncnc(Nc3ccc(OCc4cccc(F)c4)c(Cl)c3)c2c1` [MMV688273], the “Pathogen Box screen signal/noise ratio” value worked out at 0.8. For `CNC(=O)c1cc(S(=O)(=O)N2CCN(c3ccccn3)CC2)cs1` [MMV020136], the “Pathogen Box screen signal/noise ratio” value is listed as 0.5.

With `CC(C)C(NC(=O)Cc1cccc2ccccc12)C(=O)Nc1cccc(C#N)c1` (stereo not shown) [MMV020591], the “Pathogen Box screen signal/noise ratio” value is on record as 0.25. For `O=C(Nc1nc(-c2ccccn2)cs1)c1cncn1-c1ccccc1` [MMV676512], the “Pathogen Box screen signal/noise ratio” value came out at 0.561. For `CCCCc1ccc(NC(=O)Nc2ccc(O[C@H]3CCCC[C@@H]3N(C)c3ccccc3)c(F)c2)cc1` [MMV676063] the value was 0.0; for `c1ccc(Oc2ccc(-c3cc(N4CCNCC4)[nH]n3)cc2)cc1` [MMV687706], -0.0238.

Turning to `N#Cc1ccc(-c2ccc(OCC(N)=O)cc2)cc1` [MMV053220], the “Pathogen Box screen signal/noise ratio” value is reported as 0.639. For `CCn1cnc2c(Nc3cc(F)cc(F)c3)nc(C#N)nc21` [MMV676881] the value was 0.536. On to `CC1CCCCN1C(=O)NCCc1coc(-c2ccc(F)cc2)n1` (stereo not shown) [MMV688797], for which the “Pathogen Box screen signal/noise ratio” value was determined as 1.4.

For the compound `CC(C)C(C(=O)Nc1ccc(S(=O)(=O)N(C)C)cc1)c1ccc(Cl)cc1` (stereo not shown) [MMV020391], the “Pathogen Box screen signal/noise ratio” value was 0.25. In the case of `O=C(CCC1CCCCC1)Nc1cccc(-c2nnc(-c3ccco3)o2)c1` [MMV676589] it was 0.6; in that of `c1ccc(C[C@@H]2CN(c3nccc(Oc4ccc(-n5ccnc5)cc4)n3)CCN2)cc1` [MMV687749], 0.0357; in that of `COc1ccc(C2CC(c3cccs3)=NN2C(=O)c2ccco2)cc1OC` (stereo not shown) [MMV019234], 2.1. In the case of `O=C(Nc1cccc(-c2ccc(NCCCN3CCCC3)nc2)c1)c1ccccc1` [MMV023953] it was 2.4; in that of `COc1ccc(Cn2cnc3c(-c4ccco4)nc(Cl)nc32)cc1` [MMV687170], 1.0. As to `CCNC(=O)C(C)Nc1nc(-c2cccnc2)nc2sc(C)c(C)c12` (stereo not shown) [MMV1037162], the “Pathogen Box screen signal/noise ratio” value is listed as 1.2. With `FC(F)(F)c1cnc(Sc2nnc(-c3ccncc3)o2)c(Cl)c1` [MMV011765], the “Pathogen Box screen signal/noise ratio” value amounted to 1.6. Regarding `Clc1cccc(CO[C@H]2CCc3ccccc3[C@@H]2n2ccnn2)c1` [MMV676159], the “Pathogen Box screen signal/noise ratio” value came out at 1.0. Turning to `CCN(CC)C(=O)N1CCN(C)CC1` [MMV002816], the “Pathogen Box screen signal/noise ratio” value came out at 1.5.

For the compound `Cc1cc(Cl)c(S(=O)(=O)N2CCCC2)cc1OCC(=O)NC1CCCCC1` [MMV006833], the “Pathogen Box screen signal/noise ratio” value stood at 1.6. In the case of `COc1ccc(-c2cnc3cnc(-c4cccc(OC(C)C)c4)cn23)cc1` [MMV688270] it was 0.0179; in that of `COc1ccc(CCN2CCC(NCc3cccc(N(C)C)c3)CC2)cc1` [MMV011511], 0.8; in that of `CC(C)(C)c1ccc(N[C@@H]2CCCC[C@H]2NC(=O)c2ccco2)cc1` [MMV675969], 0.3.

`Cc1nn2c(=O)c3c([nH]c2c1-c1ccc(Cl)cc1)CCCC3` [MMV688776]: the “Pathogen Box screen signal/noise ratio” value worked out at 1.5.

With `O=C(C1CCN(c2nnc(-n3cccc3)s2)CC1)N1CCC(Cc2ccccc2)CC1` [MMV676478], the “Pathogen Box screen signal/noise ratio” value is 0.661. Take `CC[C@H](CO)NCCN[C@H](CC)CO` [MMV687801]: the “Pathogen Box screen signal/noise ratio” value was 1.5. For `c1ccc(Oc2ccc(-c3cc(CN4CCOCC4)[nH]n3)cc2)cc1` [MMV676161], the “Pathogen Box screen signal/noise ratio” value is recorded as 1.1. In the case of `O=C(NCc1ccco1)N1CCN(Cc2ccc(Cl)s2)CC1` [MMV688555] it was 0.218. For `O=C(Nc1nnc(S)s1)c1cc(Br)ccc1Cl` [MMV676492] the value was 0.9. As for `O=C(c1ccco1)N(CCCn1ccnc1)c1nc2c(Cl)cccc2s1` [MMV688936], the “Pathogen Box screen signal/noise ratio” value is reported as 1.4. As to `CCCCN(CCCC)c1c(C#N)cc(S(=O)(=O)Nc2ccccc2)cc1C#N` [MMV688467], the “Pathogen Box screen signal/noise ratio” value was determined as 0.7.

Consider `Clc1cccc(C(c2ccc(CN3CCNCC3)cc2)n2ccnc2)c1` (stereo not shown) [MMV663250], for which the “Pathogen Box screen signal/noise ratio” value was 0.278. In the case of `CC(=O)NC[C@H]1CN(c2ccc(N3CCSCC3)c(F)c2)C(=O)O1` [MMV688756] it was 1.1; in that of `O=C(Nc1ccccc1)c1ccc(-c2cc3ccncc3cc2OC2CCNCC2)s1` [MMV024035], 2.8; in that of `CCCn1c(CNc2ccccc2O)nc2ccccc21` [MMV676445], 0.8. For `Cc1cc(O)nc(-n2nc(C)cc2C)n1` [MMV393995] the value was 0.65; for `C[C@H](C(N)=O)N1CCCC[C@@H]1c1ccc(OCc2cccc(F)c2)cc1` [MMV676270], 0.9; for `CCOc1ccc(-c2nc(CNCCc3ccc(F)cc3)cs2)cc1` [MMV688938], -0.25. Take `CC(Oc1cccc(Cl)c1)C(=O)Nc1ccc2oc(-c3ccncc3)nc2c1` (stereo not shown) [MMV688472]: the “Pathogen Box screen signal/noise ratio” value is on record as 0.7.

On to `O=C(OCc1ccccc1)N1CCC(c2cc(-c3ccncc3)c(-c3ccc(F)cc3)[nH]2)CC1` [MMV688509], for which the “Pathogen Box screen signal/noise ratio” value is 0.0833.

As for `Nc1ncnc2[nH]nc(Cc3cccc4ccccc34)c12` [MMV688469], the “Pathogen Box screen signal/noise ratio” value is 0.357. In the case of `CC(C)C(Oc1cccc2ccccc12)C(=O)O` (stereo not shown) [MMV676191], the “Pathogen Box screen signal/noise ratio” value came out at 0.9. For `NC(CC(=O)c1ccc(Cl)cc1Cl)C(Cl)(Cl)Cl` (stereo not shown) [MMV676468], the “Pathogen Box screen signal/noise ratio” value worked out at 0.8. For `COCC(C)NC(=O)CSc1ncnc2sc(-c3ccccc3)cc12` (stereo not shown) [MMV676536] the value was 1.9; for `O=C1COCc2ccc(Br)cc2N1Cc1ccc(C(F)(F)F)cc1` [MMV032995], 0.9; for `COc1ccc(C2=NN(C3CCCCCC3)C(=O)C2(C)C)cc1OCCCCOc1ccc(-c2nn[nH]n2)cc1` [MMV690028], 2.5. For `COC(=O)Nc1nc2cc(C(=O)c3ccccc3)ccc2[nH]1` [MMV003152] the value was 1.9; for `CCCc1ccc(S(=O)(=O)Nc2ccc(CN3CCN(CC4CC4)CC3)cc2)cc1` [MMV688125], 0.6; for `O=C(Nc1ccnc(-c2cccnc2)n1)c1cc(C(F)(F)F)cc(C(F)(F)F)c1` [MMV019838], 2.8. For the compound `Nc1ncc(-c2cn[nH]c2)cc1-c1nc2cc(Cl)cnc2[nH]1` [MMV023370], the “Pathogen Box screen signal/noise ratio” value worked out at 1.1. For `Cn1ncc2c(N3CCOCC3)nc(NCCc3c[nH]c4ccccc34)nc21` [MMV676382] the value was 0.7; for `CCOC(=O)c1cc(-c2csc(Nc3c(C)cc(C)cc3C)n2)on1` [MMV676461], 2.4; for `COc1cc(OC)cc(C(=O)NCC2Cc3cc(Cl)cc(-c4ccncc4)c3O2)c1` (stereo not shown) [MMV007471], 0.2. For the compound `C[C@]1(O)C[C@@H](c2nc(-c3ccc4ccc(-c5ccccc5)nc4c3)c3c(N)nccn32)C1` [MMV676605], the “Pathogen Box screen signal/noise ratio” value was 0.9. In the case of `Cc1cccc(Cn2ccc(NC(=O)c3ccc4c(c3)OCO4)n2)c1` [MMV676386] it was 2.9; in that of `OCc1ccc(-c2cncc(Nc3cccc(Cl)c3)c2)cc1` [MMV026468], 0.563; in that of `COc1cccc(OCC(=O)c2ccc(Br)cc2)c1` [MMV676379], -0.0278. For `O=C(N[C@H](Cc1ccccc1)C(=O)Nc1ccccc1N1CCOCC1)c1cccs1` [MMV688845], the “Pathogen Box screen signal/noise ratio” value is given as 1.6. Take `COc1cccc(-n2nnnc2S(=O)(=O)Cc2ccccc2)c1` [MMV676388]: the “Pathogen Box screen signal/noise ratio” value turned out to be 0.952. Turning to `Cc1ccc(Oc2ccc(NC(=O)CNc3ccccc3N3CCCC3=O)cc2)cc1` [MMV020512], the “Pathogen Box screen signal/noise ratio” value was found to be 3.4.

In the case of `CCc1ccccc1-n1c(C)cn2c3c(=O)n(C(C(=O)OC)C(C)C)c(=O)n(C)c3nc12` (stereo not shown) [MMV688550], the “Pathogen Box screen signal/noise ratio” value worked out at 0.222. Take `c1ccc(Oc2ccc(-c3cc(N4CCOCC4)[nH]n3)cc2)cc1` [MMV045105]: the “Pathogen Box screen signal/noise ratio” value came to 1.1. In the case of `Nc1ncnc2c1c(Cc1cccc3ccccc13)nn2CC1CCNCC1` [MMV676182] it was 0.0.
